Laboratory results as given in patent US20260306527A1, “PRMT INHIBITOR COMPOUNDS AND THE USES THEREOF” (Purdue Research Foundation, priority 2023, published 2026).

target: T1, PRMT1 (Homo sapiens, UniProt Q99873); test: SAHH-coupled fluorescence assay, inhibition of PRMT1; format: biochemical; conditions: not given
T1 construct: made in house
Description: (§1) A fluorescence-based SAHH-coupled assay was applied to study the inhibition activity of all synthesized compounds on PRMT 1 and 3.
(§2) The PRMT1 methylation assay was performed under the following conditions in a final well volume of 100 μL: 2.5 mM HEPES (pH=7.0), 25 mM NaCl, 25 μM EDTA, 50 μM TCEP, 0.01% Triton X-100, 5 μM SAHH, 0.1 μM PRMT1, 10 μM AdoMet, and 10 μM ThioGlo4. […] The fluorescence signal was monitored on a BMG CLARIOstar microplate reader with excitation at 400 nm and emission at 465 nm for 15 min. Data were processed using GraphPad Prism software 8.0.
(§3) Next, the inhibition activity of the library was investigated for five PRMT members from type I PRMTs.
as §2, with “A fluorescence-based SAHH-coupled assay was applied to determine the inhibition activity of all synthesized compounds on PRMT 1 and 3. The PRMT1” for “The PRMT1”, “software 8.0. All experiments were performed in duplicate.” for “software 8.0.”

T1 sequence (Q99873 whole entry, species assumed): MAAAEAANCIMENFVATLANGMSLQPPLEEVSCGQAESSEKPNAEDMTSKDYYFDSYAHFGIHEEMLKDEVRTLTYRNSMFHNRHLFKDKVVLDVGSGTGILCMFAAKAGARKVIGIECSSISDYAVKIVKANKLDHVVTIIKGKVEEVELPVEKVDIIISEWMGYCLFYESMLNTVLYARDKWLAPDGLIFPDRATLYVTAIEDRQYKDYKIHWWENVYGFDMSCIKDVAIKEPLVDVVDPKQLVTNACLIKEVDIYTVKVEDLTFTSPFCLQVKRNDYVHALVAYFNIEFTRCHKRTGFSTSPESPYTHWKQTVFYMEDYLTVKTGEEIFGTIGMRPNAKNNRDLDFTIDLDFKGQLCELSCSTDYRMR

SMILES	inhibition at 10 µM [%]
COc1cc2nc(-c3ccc(O)cc3)nc(NCCSC[C@H]3O[C@@H](n4cnc5c(N)ncnc54)[C@H](O)[C@@H]3O)c2cc1OC [Compound 12b]	2
COc1cc2nc(-c3cccc(F)c3)nc(NCCSC[C@H]3O[C@@H](n4cnc5c(N)ncnc54)[C@H](O)[C@@H]3O)c2cc1OC [Compound 12c]	15
COc1cc2nc(-c3ccoc3)nc(NCCSC[C@H]3O[C@@H](n4cnc5c(N)ncnc54)[C@H](O)[C@@H]3O)c2cc1OC [Compound 12d]	2
COc1cc2nc(-c3ccc(C(F)(F)F)cc3)nc(NCCSC[C@H]3O[C@@H](n4cnc5c(N)ncnc54)[C@H](O)[C@@H]3O)c2cc1OC [Compound 12e]	3
COc1cc2nc(-c3ccc(F)c(O)c3)nc(NCCSC[C@H]3O[C@@H](n4cnc5c(N)ncnc54)[C@H](O)[C@@H]3O)c2cc1OC [Compound 12f]	12
COc1cc2nc(-c3cccc(O)c3)nc(NCCSC[C@H]3O[C@@H](n4cnc5c(N)ncnc54)[C@H](O)[C@@H]3O)c2cc1OC [Compound 12g]	2
COc1cc2nc(-c3ccccc3O)nc(NCCSC[C@H]3O[C@@H](n4cnc5c(N)ncnc54)[C@H](O)[C@@H]3O)c2cc1OC [Compound 12h]	1
COc1cc2nc(-c3ccc(N)cc3)nc(NCCSC[C@H]3O[C@@H](n4cnc5c(N)ncnc54)[C@H](O)[C@@H]3O)c2cc1OC [Compound 12j]	12
Nc1ncnc2c1ncn2[C@@H]1O[C@H](CSCCOc2ccc(-c3ccc(Cl)cc3)cc2)[C@@H](O)[C@H]1O [Compound 14a]	2
Nc1ncnc2c1ncn2[C@@H]1O[C@H](CSCCOc2ccc(-c3ccc(O)cc3)cc2)[C@@H](O)[C@H]1O [Compound 14b]	8
Nc1ncnc2c1ncn2[C@@H]1O[C@H](CSCCOc2ccc(-c3ccoc3)cc2)[C@@H](O)[C@H]1O [Compound 14c]	3

target: T2, PRMT4 (Homo sapiens, UniProt Q86X55); test: radioactive assay (Reaction Biology Corp.), inhibition of PRMT4; format: biochemical; conditions: not given
T2 sequence (Q86X55 1-608): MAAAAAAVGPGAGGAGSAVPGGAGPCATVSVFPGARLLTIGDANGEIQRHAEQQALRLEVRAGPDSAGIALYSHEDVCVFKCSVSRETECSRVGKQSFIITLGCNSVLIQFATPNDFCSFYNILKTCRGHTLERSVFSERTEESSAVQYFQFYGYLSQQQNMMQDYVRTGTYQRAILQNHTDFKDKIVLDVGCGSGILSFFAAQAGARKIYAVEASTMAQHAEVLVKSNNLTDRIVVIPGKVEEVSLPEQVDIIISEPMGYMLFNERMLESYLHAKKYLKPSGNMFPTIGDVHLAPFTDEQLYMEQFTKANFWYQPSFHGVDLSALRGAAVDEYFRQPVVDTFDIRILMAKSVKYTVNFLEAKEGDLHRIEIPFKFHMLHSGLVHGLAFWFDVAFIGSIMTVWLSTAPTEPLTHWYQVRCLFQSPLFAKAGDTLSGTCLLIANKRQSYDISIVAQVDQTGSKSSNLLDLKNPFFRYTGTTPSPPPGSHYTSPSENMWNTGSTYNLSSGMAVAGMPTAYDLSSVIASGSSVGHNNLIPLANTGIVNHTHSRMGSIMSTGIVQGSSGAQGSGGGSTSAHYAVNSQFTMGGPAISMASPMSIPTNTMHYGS
Description: as §3
(§4) The PRMT 4, 6 and 8 methylation assays were performed by Reaction Biology corp.

SMILES	inhibition at 10 µM [%]
COc1cc2nc(-c3ccc(O)cc3)nc(NCCSC[C@H]3O[C@@H](n4cnc5c(N)ncnc54)[C@H](O)[C@@H]3O)c2cc1OC [Compound 12b]	-4
COc1cc2nc(-c3cccc(F)c3)nc(NCCSC[C@H]3O[C@@H](n4cnc5c(N)ncnc54)[C@H](O)[C@@H]3O)c2cc1OC [Compound 12c]	62
COc1cc2nc(-c3ccoc3)nc(NCCSC[C@H]3O[C@@H](n4cnc5c(N)ncnc54)[C@H](O)[C@@H]3O)c2cc1OC [Compound 12d]	1
COc1cc2nc(-c3ccc(C(F)(F)F)cc3)nc(NCCSC[C@H]3O[C@@H](n4cnc5c(N)ncnc54)[C@H](O)[C@@H]3O)c2cc1OC [Compound 12e]	43
COc1cc2nc(-c3ccc(F)c(O)c3)nc(NCCSC[C@H]3O[C@@H](n4cnc5c(N)ncnc54)[C@H](O)[C@@H]3O)c2cc1OC [Compound 12f]	51
COc1cc2nc(-c3cccc(O)c3)nc(NCCSC[C@H]3O[C@@H](n4cnc5c(N)ncnc54)[C@H](O)[C@@H]3O)c2cc1OC [Compound 12g]	10
COc1cc2nc(-c3ccccc3O)nc(NCCSC[C@H]3O[C@@H](n4cnc5c(N)ncnc54)[C@H](O)[C@@H]3O)c2cc1OC [Compound 12h]	36
COc1cc2nc(-c3ccc(N)cc3)nc(NCCSC[C@H]3O[C@@H](n4cnc5c(N)ncnc54)[C@H](O)[C@@H]3O)c2cc1OC [Compound 12j]	1
Nc1ncnc2c1ncn2[C@@H]1O[C@H](CSCCOc2ccc(-c3ccc(Cl)cc3)cc2)[C@@H](O)[C@H]1O [Compound 14a]	47
Nc1ncnc2c1ncn2[C@@H]1O[C@H](CSCCOc2ccc(-c3ccc(O)cc3)cc2)[C@@H](O)[C@H]1O [Compound 14b]	13
Nc1ncnc2c1ncn2[C@@H]1O[C@H](CSCCOc2ccc(-c3ccoc3)cc2)[C@@H](O)[C@H]1O [Compound 14c]	17

target: PRMT6 (Homo sapiens, UniProt Q96LA8); test: radioactive assay (Reaction Biology Corp.), inhibition of PRMT6; format: biochemical; conditions: not given
Sequence (Q96LA8 whole entry, species assumed): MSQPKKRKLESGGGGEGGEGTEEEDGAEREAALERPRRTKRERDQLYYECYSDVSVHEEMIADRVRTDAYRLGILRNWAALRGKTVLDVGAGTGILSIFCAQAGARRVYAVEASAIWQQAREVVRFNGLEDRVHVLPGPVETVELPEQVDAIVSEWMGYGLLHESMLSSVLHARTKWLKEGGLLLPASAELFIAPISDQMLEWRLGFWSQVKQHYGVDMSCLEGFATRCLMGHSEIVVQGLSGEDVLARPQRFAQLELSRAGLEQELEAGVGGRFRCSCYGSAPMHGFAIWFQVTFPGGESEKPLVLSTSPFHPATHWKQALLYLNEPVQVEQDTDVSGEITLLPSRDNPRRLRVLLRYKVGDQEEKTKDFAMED
Description: as §3, §4

SMILES	inhibition at 10 µM [%]
COc1cc2nc(-c3ccc(O)cc3)nc(NCCSC[C@H]3O[C@@H](n4cnc5c(N)ncnc54)[C@H](O)[C@@H]3O)c2cc1OC [Compound 12b]	91
COc1cc2nc(-c3cccc(F)c3)nc(NCCSC[C@H]3O[C@@H](n4cnc5c(N)ncnc54)[C@H](O)[C@@H]3O)c2cc1OC [Compound 12c]	43
COc1cc2nc(-c3ccoc3)nc(NCCSC[C@H]3O[C@@H](n4cnc5c(N)ncnc54)[C@H](O)[C@@H]3O)c2cc1OC [Compound 12d]	16
COc1cc2nc(-c3ccc(C(F)(F)F)cc3)nc(NCCSC[C@H]3O[C@@H](n4cnc5c(N)ncnc54)[C@H](O)[C@@H]3O)c2cc1OC [Compound 12e]	19
COc1cc2nc(-c3ccc(F)c(O)c3)nc(NCCSC[C@H]3O[C@@H](n4cnc5c(N)ncnc54)[C@H](O)[C@@H]3O)c2cc1OC [Compound 12f]	16
COc1cc2nc(-c3cccc(O)c3)nc(NCCSC[C@H]3O[C@@H](n4cnc5c(N)ncnc54)[C@H](O)[C@@H]3O)c2cc1OC [Compound 12g]	13
COc1cc2nc(-c3ccccc3O)nc(NCCSC[C@H]3O[C@@H](n4cnc5c(N)ncnc54)[C@H](O)[C@@H]3O)c2cc1OC [Compound 12h]	16
COc1cc2nc(-c3ccc(N)cc3)nc(NCCSC[C@H]3O[C@@H](n4cnc5c(N)ncnc54)[C@H](O)[C@@H]3O)c2cc1OC [Compound 12j]	8
Nc1ncnc2c1ncn2[C@@H]1O[C@H](CSCCOc2ccc(-c3ccc(Cl)cc3)cc2)[C@@H](O)[C@H]1O [Compound 14a]	-4
Nc1ncnc2c1ncn2[C@@H]1O[C@H](CSCCOc2ccc(-c3ccc(O)cc3)cc2)[C@@H](O)[C@H]1O [Compound 14b]	20
Nc1ncnc2c1ncn2[C@@H]1O[C@H](CSCCOc2ccc(-c3ccoc3)cc2)[C@@H](O)[C@H]1O [Compound 14c]	3

same assay, conditions: 10 μM

SMILES	PRMT6 inhibition
COc1cc2nc(-c3ccc(O)cc3)nc(NCCSC[C@H]3O[C@@H](n4cnc5c(N)ncnc54)[C@H](O)[C@@H]3O)c2cc1OC [Compound 12b]	selective inhibition to PRMT6

target: PRMT8 (Homo sapiens, UniProt Q9NR22); test: radioactive assay (Reaction Biology Corp.), inhibition of PRMT8; format: biochemical; conditions: not given
Sequence (Q9NR22 whole entry, species assumed): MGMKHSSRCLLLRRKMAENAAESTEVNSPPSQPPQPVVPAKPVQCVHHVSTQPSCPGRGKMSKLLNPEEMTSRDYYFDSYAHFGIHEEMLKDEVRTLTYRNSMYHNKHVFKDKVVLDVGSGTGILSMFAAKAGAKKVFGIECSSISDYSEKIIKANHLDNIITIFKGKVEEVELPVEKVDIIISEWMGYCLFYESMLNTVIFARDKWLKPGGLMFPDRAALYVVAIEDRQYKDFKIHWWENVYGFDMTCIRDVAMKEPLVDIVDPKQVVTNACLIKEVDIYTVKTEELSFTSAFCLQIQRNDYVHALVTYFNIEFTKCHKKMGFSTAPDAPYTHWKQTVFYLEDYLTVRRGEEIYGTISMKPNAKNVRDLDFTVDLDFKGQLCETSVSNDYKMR
Description: as §3, §4

SMILES	inhibition at 10 µM [%]
COc1cc2nc(-c3ccc(O)cc3)nc(NCCSC[C@H]3O[C@@H](n4cnc5c(N)ncnc54)[C@H](O)[C@@H]3O)c2cc1OC [Compound 12b]	22
COc1cc2nc(-c3cccc(F)c3)nc(NCCSC[C@H]3O[C@@H](n4cnc5c(N)ncnc54)[C@H](O)[C@@H]3O)c2cc1OC [Compound 12c]	35
COc1cc2nc(-c3ccoc3)nc(NCCSC[C@H]3O[C@@H](n4cnc5c(N)ncnc54)[C@H](O)[C@@H]3O)c2cc1OC [Compound 12d]	25
COc1cc2nc(-c3ccc(C(F)(F)F)cc3)nc(NCCSC[C@H]3O[C@@H](n4cnc5c(N)ncnc54)[C@H](O)[C@@H]3O)c2cc1OC [Compound 12e]	37
COc1cc2nc(-c3ccc(F)c(O)c3)nc(NCCSC[C@H]3O[C@@H](n4cnc5c(N)ncnc54)[C@H](O)[C@@H]3O)c2cc1OC [Compound 12f]	21
COc1cc2nc(-c3cccc(O)c3)nc(NCCSC[C@H]3O[C@@H](n4cnc5c(N)ncnc54)[C@H](O)[C@@H]3O)c2cc1OC [Compound 12g]	25
COc1cc2nc(-c3ccccc3O)nc(NCCSC[C@H]3O[C@@H](n4cnc5c(N)ncnc54)[C@H](O)[C@@H]3O)c2cc1OC [Compound 12h]	18
COc1cc2nc(-c3ccc(N)cc3)nc(NCCSC[C@H]3O[C@@H](n4cnc5c(N)ncnc54)[C@H](O)[C@@H]3O)c2cc1OC [Compound 12j]	21
Nc1ncnc2c1ncn2[C@@H]1O[C@H](CSCCOc2ccc(-c3ccc(Cl)cc3)cc2)[C@@H](O)[C@H]1O [Compound 14a]	38
Nc1ncnc2c1ncn2[C@@H]1O[C@H](CSCCOc2ccc(-c3ccc(O)cc3)cc2)[C@@H](O)[C@H]1O [Compound 14b]	20
Nc1ncnc2c1ncn2[C@@H]1O[C@H](CSCCOc2ccc(-c3ccoc3)cc2)[C@@H](O)[C@H]1O [Compound 14c]	39

target: PRMT3 (Homo sapiens, UniProt O60678); test: SAHH-coupled fluorescence assay, inhibition of PRMT3; format: biochemical; design: PRMT3 (residues 211-531) was cloned into the pET28a-MHL expression vector; tag of the pET28a-MHL vector (not described); made in house; host or cells: Escherichia coli BL21(DE3); conditions: not given
Sequence (O60678 211-531): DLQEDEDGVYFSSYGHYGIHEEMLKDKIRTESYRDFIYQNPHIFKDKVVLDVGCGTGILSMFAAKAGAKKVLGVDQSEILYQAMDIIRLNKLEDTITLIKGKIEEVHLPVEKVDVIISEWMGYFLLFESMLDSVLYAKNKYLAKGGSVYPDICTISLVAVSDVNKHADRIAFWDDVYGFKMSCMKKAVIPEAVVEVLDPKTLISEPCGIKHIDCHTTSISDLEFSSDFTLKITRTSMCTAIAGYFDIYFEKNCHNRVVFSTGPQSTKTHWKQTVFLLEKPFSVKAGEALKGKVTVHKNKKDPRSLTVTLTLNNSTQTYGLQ
Description: as §1
(§5) The PRMT3 methylation assay was performed under the following conditions in a final well volume of 100 μL: 20 mM Tris (pH=7.5), 0.01% Triton X-100, 5 μM SAHH, 0.25 μM PRMT3, 30 μM AdoMet, and 15 μM ThioGlo4. […] Fluorescence was monitored on a BMG CLARIOstar microplate reader with excitation 380 nm and emission 505 nm. Data were processed by using GraphPad Prism software 8.0. All experiments were performed in duplicate.
as §3
as §5, with “8.0.” for “8.0. All experiments were performed in duplicate.”

SMILES	inhibition at 10 µM [%]
COc1cc2nc(-c3ccc(O)cc3)nc(NCCSC[C@H]3O[C@@H](n4cnc5c(N)ncnc54)[C@H](O)[C@@H]3O)c2cc1OC [Compound 12b]	13
COc1cc2nc(-c3cccc(F)c3)nc(NCCSC[C@H]3O[C@@H](n4cnc5c(N)ncnc54)[C@H](O)[C@@H]3O)c2cc1OC [Compound 12c]	15
COc1cc2nc(-c3ccoc3)nc(NCCSC[C@H]3O[C@@H](n4cnc5c(N)ncnc54)[C@H](O)[C@@H]3O)c2cc1OC [Compound 12d]	10
COc1cc2nc(-c3ccc(C(F)(F)F)cc3)nc(NCCSC[C@H]3O[C@@H](n4cnc5c(N)ncnc54)[C@H](O)[C@@H]3O)c2cc1OC [Compound 12e]	5
COc1cc2nc(-c3ccc(F)c(O)c3)nc(NCCSC[C@H]3O[C@@H](n4cnc5c(N)ncnc54)[C@H](O)[C@@H]3O)c2cc1OC [Compound 12f]	9
COc1cc2nc(-c3cccc(O)c3)nc(NCCSC[C@H]3O[C@@H](n4cnc5c(N)ncnc54)[C@H](O)[C@@H]3O)c2cc1OC [Compound 12g]	4
COc1cc2nc(-c3ccccc3O)nc(NCCSC[C@H]3O[C@@H](n4cnc5c(N)ncnc54)[C@H](O)[C@@H]3O)c2cc1OC [Compound 12h]	12
COc1cc2nc(-c3ccc(N)cc3)nc(NCCSC[C@H]3O[C@@H](n4cnc5c(N)ncnc54)[C@H](O)[C@@H]3O)c2cc1OC [Compound 12j]	13
Nc1ncnc2c1ncn2[C@@H]1O[C@H](CSCCOc2ccc(-c3ccc(Cl)cc3)cc2)[C@@H](O)[C@H]1O [Compound 14a]	9
Nc1ncnc2c1ncn2[C@@H]1O[C@H](CSCCOc2ccc(-c3ccc(O)cc3)cc2)[C@@H](O)[C@H]1O [Compound 14b]	6
Nc1ncnc2c1ncn2[C@@H]1O[C@H](CSCCOc2ccc(-c3ccoc3)cc2)[C@@H](O)[C@H]1O [Compound 14c]	6
